Laboratory results from ChEMBL document CHEMBL1201862, “PubChem BioAssay data set” (2004).
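Dose response: 5 concentrations. Exposure: 48 h. Format: 96-well plates. Endpoint: linear interpolation; highest concentration if not reached. GI50 marks 50% less growth.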 Calls of active or inactive are those of the source. Cut-off read from the data, not from the text of the source: active = GI50 up to about 1.1 µM and inactive = higher.

Experiments:
Assay in all cases: DTP human tumour cell line panel, 48 h
[1] = system: 786-0
[2] = system: A498
[3] = system: A549
[4] = system: CAKI-1
[5] = system: EKVX
[6] = system: HCT-15
[7] = system: HT-29
[8] = system: KM12
[9] = system: M14
[10] = system: Malme-3M
[11] = system: NCI-H522
[12] = system: OVCAR-5
[13] = system: SK-MEL-5
[14] = system: SK-OV-3
[15] = system: SNB-19
[16] = system: SR
[17] = system: TK-10
[18] = system: UACC-257
[19] = system: MDA-MB-435

CCCCCCC(O)CC[C@H]1CCC[C@@H](C)N1 (some centres not stated)
GI50 [1]: > 10 µM (inactive)
GI50 [2]: > 10 µM (inactive)
GI50 [3]: > 100 µM (inactive)
GI50 [4]: > 100 µM (inactive)
GI50 [5]: > 100 µM (inactive)
GI50 [6]: > 31.6 µM
GI50 [7]: 29 µM (inactive)
GI50 [8]: > 10 µM (inactive)
GI50 [9]: > 100 µM (inactive)
GI50 [10]: > 100 µM (inactive)
GI50 [11]: > 100 µM (inactive)
GI50 [12]: > 10 µM (inactive)
GI50 [13]: 55 µM (inactive)
GI50 [14]: > 100 µM (inactive)
GI50 [15]: > 10 µM (inactive)
GI50 [16]: > 100 µM (inactive)
GI50 [17]: > 100 µM (inactive)
GI50 [18]: > 10 µM (inactive)

COc1ccccc1NC(=S)Nc1cc(C)cc(C)n1
GI50 [1]: > 100 µM (inactive)
GI50 [2]: > 100 µM (inactive)
GI50 [3]: > 100 µM (inactive)
GI50 [4]: > 100 µM (inactive)
GI50 [5]: > 100 µM (inactive)
GI50 [6]: > 100 µM
GI50 [7]: > 100 µM (inactive)
GI50 [8]: > 100 µM (inactive)
GI50 [9]: > 100 µM (inactive)
GI50 [19]: > 100 µM (inactive)
GI50 [10]: > 100 µM (inactive)
GI50 [12]: > 100 µM (inactive)
GI50 [13]: > 100 µM (inactive)
GI50 [14]: > 100 µM (inactive)
GI50 [15]: > 100 µM (inactive)
GI50 [17]: > 100 µM (inactive)
GI50 [18]: > 100 µM (inactive)

O=S1(=O)OCCOS(=O)(=O)C1Cc1ccccc1
GI50 [1]: 32.5 µM (inactive)
GI50 [2]: 36.8 µM (inactive)
GI50 [3]: 44.3 µM (inactive)
GI50 [4]: 55.8 µM (inactive)
GI50 [5]: 33.7 µM (inactive)
GI50 [7]: 63.5 µM (inactive)
GI50 [8]: > 100 µM (inactive)
GI50 [10]: > 100 µM (inactive)
GI50 [11]: 45.2 µM (inactive)
GI50 [12]: > 100 µM (inactive)
GI50 [14]: > 100 µM (inactive)
GI50 [15]: 70.3 µM (inactive)
GI50 [16]: 28.8 µM (inactive)
GI50 [17]: > 100 µM (inactive)
GI50 [18]: 53.6 µM (inactive)

O=[N+]([O-])c1ccc(CSc2nn(Cc3ccc([N+](=O)[O-])cc3)cc3ncnc2-3)cc1
GI50 [1]: 47.5 µM (inactive)
GI50 [2]: 18.4 µM (inactive)
GI50 [3]: 39 µM (inactive)
GI50 [4]: 35.2 µM (inactive)
GI50 [5]: 69.3 µM (inactive)
GI50 [6]: 43.1 µM
GI50 [7]: 29.6 µM (inactive)
GI50 [8]: 30.4 µM (inactive)
GI50 [9]: 34.8 µM (inactive)
GI50 [19]: 21.1 µM (inactive)
GI50 [10]: 27.4 µM (inactive)
GI50 [11]: 22.3 µM (inactive)
GI50 [12]: > 100 µM (inactive)
GI50 [13]: 32 µM (inactive)
GI50 [14]: > 100 µM (inactive)
GI50 [17]: 29 µM (inactive)
GI50 [18]: 29 µM (inactive)

Cn1c(C(C#N)c2nc(Cl)ncc2Br)nc2ccccc21 (configuration not stated)
GI50 [1]: > 100 µM (inactive)
GI50 [2]: > 100 µM (inactive)
GI50 [3]: > 100 µM (inactive)
GI50 [4]: > 100 µM (inactive)
GI50 [5]: > 100 µM (inactive)
GI50 [6]: > 100 µM
GI50 [7]: > 100 µM (inactive)
GI50 [8]: > 100 µM (inactive)
GI50 [9]: > 100 µM (inactive)
GI50 [19]: > 100 µM (inactive)
GI50 [10]: > 100 µM (inactive)
GI50 [11]: > 100 µM (inactive)
GI50 [12]: > 100 µM (inactive)
GI50 [13]: > 100 µM (inactive)
GI50 [14]: > 100 µM (inactive)
GI50 [15]: > 100 µM (inactive)
GI50 [17]: > 100 µM (inactive)
GI50 [18]: > 100 µM (inactive)

CCn1cnc2c(NC(C)=O)ncnc21
GI50 [1]: > 100 µM (inactive)
GI50 [3]: > 100 µM (inactive)
GI50 [4]: > 100 µM (inactive)
GI50 [5]: > 100 µM (inactive)
GI50 [6]: > 100 µM
GI50 [7]: > 100 µM (inactive)
GI50 [8]: > 100 µM (inactive)
GI50 [9]: > 100 µM (inactive)
GI50 [19]: > 100 µM (inactive)
GI50 [10]: > 100 µM (inactive)
GI50 [11]: > 100 µM (inactive)
GI50 [12]: > 100 µM (inactive)
GI50 [13]: > 100 µM (inactive)
GI50 [14]: > 100 µM (inactive)
GI50 [15]: > 100 µM (inactive)
GI50 [17]: > 100 µM (inactive)
GI50 [18]: > 100 µM (inactive)
